A word on the IC50: it is the midpoint of a concentration-inhibition curve.

This note sets out measurements from patent publication US9399646B2 (Genentech, Inc., priority 2010, dated 2016).

Test [1] deals with T1, ER-α in MCF-7 cells (Homo sapiens, UniProt P03372).
T1 sequence (P03372 1-595): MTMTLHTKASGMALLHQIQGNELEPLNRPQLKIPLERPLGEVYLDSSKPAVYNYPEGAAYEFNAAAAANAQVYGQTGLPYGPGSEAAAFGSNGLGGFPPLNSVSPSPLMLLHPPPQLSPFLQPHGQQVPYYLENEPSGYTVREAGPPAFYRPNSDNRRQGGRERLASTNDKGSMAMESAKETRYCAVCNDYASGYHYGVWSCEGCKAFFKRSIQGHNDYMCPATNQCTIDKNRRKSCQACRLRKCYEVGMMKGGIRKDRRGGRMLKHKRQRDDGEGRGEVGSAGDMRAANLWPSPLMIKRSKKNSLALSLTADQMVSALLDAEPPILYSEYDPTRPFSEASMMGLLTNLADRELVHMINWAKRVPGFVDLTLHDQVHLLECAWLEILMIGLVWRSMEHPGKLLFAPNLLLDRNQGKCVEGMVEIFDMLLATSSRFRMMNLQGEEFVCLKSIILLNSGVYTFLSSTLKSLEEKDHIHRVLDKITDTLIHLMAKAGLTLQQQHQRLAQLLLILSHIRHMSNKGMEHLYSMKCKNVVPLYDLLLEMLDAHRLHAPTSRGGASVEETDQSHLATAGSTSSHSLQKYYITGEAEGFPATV
Nature of the test: Breast cancer cell ER-α in cell western assay (SP1). The arrangement: endogenous in cells; host or cells: MCF-7. Conditions: 4 or 24 hr post compound addition; for Emax: MCF7, SP1 antibody, read-out: ER-α In Cell Western Assay (SP1) Max Response; for DC50: SP1 antibody, read-out: ER-α In Cell Western Assay (SP1) IC50. In kind it is cell-based. In outline: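 MCF-7, charcoal-stripped FBS/RPMI, 3200 cells/well, adhered overnight. Formalin fix, SP1 Ab o/n 4 °C, IRDye 800CW + DRAQ5; % ER = 800/700 ratio vs untreated.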

Test [2] concerns MCF-7 cells. Briefly: Breast cancer cell viability assay (CellTiter-Glo, 5 days). Format: cell-based. Conditions: 5 days' compound exposure; for IC50: Homo sapiens, MCF7, 120 h. Put shortly:
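MCF-7 cells, 320 per well in RPMI with 10% FBS and 20 mM HEPES, adhered overnight, then exposed 5 days to an eleven-point semilog dilution (final 0.3-0.000003 μM). CellTiter-Glo luminescence read; % viability = (sample − cell-free background)/(untreated − background) × 100.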

Take `CC/C(=C(/c1ccc(/C=C/C(=O)O)cc1)c1cc(F)c2[nH]ncc2c1)c1cc[n+]([O-])cc1Cl` [Compound 453, 4-((E)-1-(4-((E)-2-Carboxyvinyl)phenyl)-1-(7-fluoro-1H-indazol-5-yl)but-1-en-2-yl)-3-chloropyridine-1-oxide]: in test [1], the Emax is at least 40% and the DC50 was above 100 nM. Moreover, in test [2], the “MCF7 Viability Assay Max Response” value is recorded as “++ (++ = a single % value ≧ 40%)” and the IC50 is above 100 nM.
In the case of `CC/C(=C(/c1ccc(OC[C@H](C)N2CC[C@@H](C)C2)cc1)c1ccc2[nH]ncc2c1)c1ccccc1` [Compound 329, 5-((E)-1-(4-((S)-2-((R)-3-Methylpyrrolidin-1-yl)propoxy)phenyl)-2-phenylbut-1-en-1-yl)-1H-indazole], in test [1], the Emax is at least 40% and the DC50 was at most 100 nM. Moreover, in test [2], the “MCF7 Viability Assay Max Response” value was “++ (++ = a single % value ≧ 40%)” and the IC50 is at most 100 nM.
Take `O=C(/C=C/c1ccc(/C(=C(\c2ccccc2)C2CCC2)c2ccc3[nH]nc(F)c3c2)cc1)NC1CC1` [Compound 413, (E)-3-(4-((E)-2-Cyclobutyl-1-(3-fluoro-1H-indazol-5-yl)-2-phenylvinyl)phenyl)-N-cyclopropylacrylamide]: in test [1], the Emax was at least 40% and the DC50 was at most 100 nM. In test [2], the “MCF7 Viability Assay Max Response” value was “++ (++ = a single % value ≧ 40%)” and the IC50 was at most 100 nM.
With `CC/C(=C(/c1ccc(/C=C/C(=O)O)cc1)c1ccc2[nH]ncc2c1)c1ccc(C(=O)N(C)C)cc1F` [Compound 212, (E)-3-(4-((E)-2-(4-(Dimethylcarbamoyl)-2-fluorophenyl)-1-(1H-indazol-5-yl)but-1-en-1-yl)phenyl)acrylic acid], in test [1], the Emax is at least 40% and the DC50 is above 100 nM. Moreover, in test [2], the “MCF7 Viability Assay Max Response” value is recorded as “++ (++ = a single % value ≧ 40%)” and the IC50 is above 100 nM.
In the case of `CC/C(=C(/c1ccc(/C=C/C(=O)O)cc1)c1ccc2c(cnn2-c2ccccc2)c1)c1ccccc1` [Compound 143, (E)-3-(4-((E)-2-Phenyl-1-(1-phenyl-1H-indazol-5-yl)but-1-en-1-yl)phenyl)acrylic acid], in test [1], the Emax is at least 40% and the DC50 is above 100 nM. Also, in test [2], the “MCF7 Viability Assay Max Response” value was “++ (++ = a single % value ≧ 40%)” and the IC50 is above 100 nM.
In the case of `CC/C(=C(/c1ccc(/C=C/C(=O)O)cc1)c1ccc2[nH]ncc2c1F)c1cccc(Oc2cnccn2)c1` [Compound 377, (E)-3-(4-((E)-1-(4-Fluoro-1H-indazol-5-yl)-2-(3-(pyrazin-2-yloxy)phenyl)but-1-en-1-yl)phenyl)acrylic acid], in test [1], the Emax is at least 40% and the DC50 was at most 100 nM. Moreover, in test [2], the “MCF7 Viability Assay Max Response” value is listed as “++ (++ = a single % value ≧ 40%)” and the IC50 was at most 100 nM.
In the case of `CC/C(=C(/c1ccc(/C=C/C(=O)O)cc1)c1ccc2[nH]ncc2c1)c1ccccc1Oc1ccccc1` [Compound 147, (E)-3-(4-((E)-1-(1H-Indazol-5-yl)-2-(2-phenoxyphenyl)but-1-en-1-yl)phenyl)acrylic acid], in test [1], the Emax is at least 40% and the DC50 is at most 100 nM. Besides, in test [2], the “MCF7 Viability Assay Max Response” value is on record as “++ (++ = a single % value ≧ 40%)” and the IC50 is at most 100 nM.
For the compound `CC/C(=C(/c1ccc(/C=C/C(=O)O)cc1)c1ccc2[nH]ncc2c1)c1cccc(-c2cscn2)c1` [Compound 392, (E)-3-(4-((E)-1-(1H-Indazol-5-yl)-2-(3-(thiazol-4-yl)phenyl)but-1-en-1-yl)phenyl)acrylic acid], in test [1], the Emax is at least 40% and the DC50 was at most 100 nM. In test [2], the “MCF7 Viability Assay Max Response” value was “++ (++ = a single % value ≧ 40%)” and the concentration for half-maximal inhibition (IC50) is at most 100 nM.
Regarding `CC/C(=C(/c1ccc(/C=C/C(=O)O)cc1)c1ccc2[nH]ncc2c1)c1cc(C)sc1C` [Compound 274, (E)-3-(4-((E)-2-(2,5-Dimethylthiophen-3-yl)-1-(1H-indazol-5-yl)but-1-en-1-yl)phenyl)acrylic acid], in test [1], the Emax is at least 40% and the DC50 was at most 100 nM. For the same compound, in test [2], the “MCF7 Viability Assay Max Response” value is given as “++ (++ = a single % value ≧ 40%)” and the IC50 is at most 100 nM.
`CC/C(=C(/c1ccc(/C=C/C(=O)O)cc1)c1ccc2[nH]ncc2c1F)c1cscc1C` [Compound 242, (E)-3-(4-((E)-1-(4-Fluoro-1H-indazol-5-yl)-2-(4-methylthiophen-3-yl)but-1-en-1-yl)phenyl)acrylic acid]: in test [1], the Emax is at least 40% and the DC50 is at most 100 nM. In test [2], the “MCF7 Viability Assay Max Response” value is on record as “++ (++ = a single % value ≧ 40%)” and the half-maximal inhibitory concentration (IC50) is at most 100 nM.
Turning to `CC/C(=C(/c1ccc(/C=C/C(=O)O)cc1)c1cccc2[nH]nnc12)c1ccccc1` [Compound 88, (E)-3-(4-((E)-1-(1H-Benzo[d][1,2,3]triazol-4-yl)-2-phenylbut-1-en-1-yl)phenyl)acrylic acid], in test [1], the Emax was at least 40% and the DC50 is above 100 nM. Besides, in test [2], the “MCF7 Viability Assay Max Response” value is on record as “++ (++ = a single % value ≧ 40%)” and the IC50 is above 100 nM.
As for `O=C(/C=C/c1ccc(/C(=C(\c2ccccc2)C2CCC2)c2ccc3[nH]nc(F)c3c2)cc1)NCCO` [Compound 414, (E)-3-(4-((E)-2-Cyclobutyl-1-(3-fluoro-1H-indazol-5-yl)-2-phenylvinyl)phenyl)-N-(2-hydroxyethyl)acrylamide], in test [1], the Emax was at least 40% and the DC50 is at most 100 nM. In addition, in test [2], the “MCF7 Viability Assay Max Response” value is on record as “++ (++ = a single % value ≧ 40%)” and the IC50 is at most 100 nM.
On to `CC/C(=C(/c1ccc(/C=C/C(=O)O)cc1)c1ccc2[nH]ncc2c1)c1ccc(Oc2cnccn2)cc1` [Compound 293, (E)-3-(4-((E)-1-(1H-Indazol-5-yl)-2-(4-(pyrazin-2-yloxy)phenyl)but-1-en-1-yl)phenyl)acrylic acid], for which, in test [1], the Emax was at least 40% and the DC50 was at most 100 nM. For the same compound, in test [2], the “MCF7 Viability Assay Max Response” value is listed as “++ (++ = a single % value ≧ 40%)” and the IC50 was at most 100 nM.
Turning to `CC/C(=C(/c1ccc(/C=C/C(=O)NC)cc1)c1ccc2[nH]ncc2c1)c1ccc(F)cc1Cl` [Compound 420, (E)-3-(4-((E)-2-(2-Chloro-4-fluorophenyl)-1-(1H-indazol-5-yl)but-1-en-1-yl)phenyl)-N-methylacrylamide], in test [1], the Emax was at least 40% and the DC50 was at most 100 nM. For the same compound, in test [2], the “MCF7 Viability Assay Max Response” value is “++ (++ = a single % value ≧ 40%)” and the half-inhibitory concentration (IC50) was at most 100 nM.
In the case of `CC/C(=C(/c1ccc(/C=C/C(=O)O)cc1)c1ccc2[nH]ncc2c1)c1ccsc1` [Compound 24, (E)-3-(4-((E)-1-(1H-Indazol-5-yl)-2-(thiophen-3-yl)but-1-en-1-yl)phenyl)acrylic acid], in test [1], the Emax is at least 40% and the DC50 is at most 100 nM. For the same compound, in test [2], the “MCF7 Viability Assay Max Response” value is reported as “++ (++ = a single % value ≧ 40%)” and the half-inhibitory concentration (IC50) was at most 100 nM.
Turning to `CC/C(=C(/c1ccc(/C=C/C(=O)O)cc1)c1cc(F)c2[nH]ccc2c1)c1ccc(Cl)cc1Cl` [Compound 253, (E)-3-(4-((E)-2-(2,4-Dichlorophenyl)-1-(7-fluoro-1H-indol-5-yl)but-1-en-1-yl)phenyl)acrylic acid], in test [1], the Emax was at least 40% and the DC50 is at most 100 nM. In test [2], the “MCF7 Viability Assay Max Response” value is “++ (++ = a single % value ≧ 40%)” and the IC50 was at most 100 nM.
For `CC/C(=C(/c1ccc(/C=C/c2nn[nH]n2)cc1)c1ccc2scnc2c1)c1cscc1C` [Compound 447, 5-((E)-1-(4-((E)-2-(2H-Tetrazol-5-yl)vinyl)phenyl)-2-(4-methylthiophen-3-yl)but-1-en-1-yl)benzo[d]thiazole], in test [1], the Emax was at least 40% and the DC50 was at most 100 nM. In test [2], the “MCF7 Viability Assay Max Response” value is listed as “++ (++ = a single % value ≧ 40%)” and the half-inhibitory concentration (IC50) was at most 100 nM.
With `CC/C(=C(/c1ccc(/C=C/C(=O)O)cc1)c1ccc2[nH]ncc2c1)c1ccncc1C(F)(F)F` [Compound 304, (E)-3-(4-((E)-1-(1H-Indazol-5-yl)-2-(3-(trifluoromethyl)pyridin-4-yl)but-1-en-1-yl)phenyl)acrylic acid], in test [1], the Emax was at least 40% and the DC50 was at most 100 nM. In test [2], the “MCF7 Viability Assay Max Response” value is listed as “++ (++ = a single % value ≧ 40%)” and the IC50 was at most 100 nM.
As for `CC/C(=C(/c1ccc(/C=C/C(=O)O)cc1)c1cccc2[nH]nnc12)c1ccc(F)cc1Cl` [Compound 89, (E)-3-(4-((E)-1-(1H-Benzo[d][1,2,3]triazol-4-yl)-2-(2-chloro-4-fluorophenyl)but-1-en-1-yl)phenyl)acrylic acid], in test [1], the Emax is at least 40% and the DC50 is at most 100 nM. Besides, in test [2], the “MCF7 Viability Assay Max Response” value was “++ (++ = a single % value ≧ 40%)” and the IC50 was at most 100 nM.
